Our source for the inhibition and IC50 values is ChEMBL document CHEMBL4414609, “High-Affinity Alkynyl Bisubstrate Inhibitors of Nicotinamide N-Methyltransferase (NNMT)” (J Med Chem, 2019).

Data set [1] addresses INMT (indolethylamine N-methyltransferase) (Homo sapiens, UniProt O95050). Put plainly: Inhibition of wild type human INMT expressed in Escherichia coli at 10 uM using tryptamine as substrate in presence of SAM incubated for 30 mins by MTase-Glo assay relative to control. The note with it: probe tryptamine.
For data set [2], the target named is T1, GNMT (glycine N-methyltransferase) (Homo sapiens, UniProt Q14749).
T1 sequence (Q14749 whole entry): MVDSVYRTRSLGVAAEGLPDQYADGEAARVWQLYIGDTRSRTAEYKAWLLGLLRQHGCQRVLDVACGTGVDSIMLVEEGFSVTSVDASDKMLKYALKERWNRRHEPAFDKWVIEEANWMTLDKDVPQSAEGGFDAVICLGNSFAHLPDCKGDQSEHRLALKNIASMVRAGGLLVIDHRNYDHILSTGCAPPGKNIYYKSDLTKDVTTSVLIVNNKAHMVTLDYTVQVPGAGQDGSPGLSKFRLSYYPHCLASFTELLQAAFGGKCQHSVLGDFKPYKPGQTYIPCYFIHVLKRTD
Put plainly: Inhibition of human GNMT expressed in Escherichia coli at 1 uM assessed as reduction in SAH level using glycine as substrate in presence of SAM incubated for 30 mins by LC-MS/MS analysis relative to control. The note with it: recombinant human GNMT expressed in Escherichia coli, probe glycine.

For data set [3], the target named is Histone-lysine N-methyltransferase, H3 lysine-79 specific (Homo sapiens, UniProt Q8TEK3). Put plainly: Inhibition of human DOT1L expressed in Escherichia coli assessed as reduction in methylated polynucleosome level using polynucleosome as substrate in presence of [3H] SAM incubated for 15 mins by scintillation counting.
Histone-lysine N-methyltransferase, H3 lysine-79 specific, sequence (Q8TEK3 whole entry): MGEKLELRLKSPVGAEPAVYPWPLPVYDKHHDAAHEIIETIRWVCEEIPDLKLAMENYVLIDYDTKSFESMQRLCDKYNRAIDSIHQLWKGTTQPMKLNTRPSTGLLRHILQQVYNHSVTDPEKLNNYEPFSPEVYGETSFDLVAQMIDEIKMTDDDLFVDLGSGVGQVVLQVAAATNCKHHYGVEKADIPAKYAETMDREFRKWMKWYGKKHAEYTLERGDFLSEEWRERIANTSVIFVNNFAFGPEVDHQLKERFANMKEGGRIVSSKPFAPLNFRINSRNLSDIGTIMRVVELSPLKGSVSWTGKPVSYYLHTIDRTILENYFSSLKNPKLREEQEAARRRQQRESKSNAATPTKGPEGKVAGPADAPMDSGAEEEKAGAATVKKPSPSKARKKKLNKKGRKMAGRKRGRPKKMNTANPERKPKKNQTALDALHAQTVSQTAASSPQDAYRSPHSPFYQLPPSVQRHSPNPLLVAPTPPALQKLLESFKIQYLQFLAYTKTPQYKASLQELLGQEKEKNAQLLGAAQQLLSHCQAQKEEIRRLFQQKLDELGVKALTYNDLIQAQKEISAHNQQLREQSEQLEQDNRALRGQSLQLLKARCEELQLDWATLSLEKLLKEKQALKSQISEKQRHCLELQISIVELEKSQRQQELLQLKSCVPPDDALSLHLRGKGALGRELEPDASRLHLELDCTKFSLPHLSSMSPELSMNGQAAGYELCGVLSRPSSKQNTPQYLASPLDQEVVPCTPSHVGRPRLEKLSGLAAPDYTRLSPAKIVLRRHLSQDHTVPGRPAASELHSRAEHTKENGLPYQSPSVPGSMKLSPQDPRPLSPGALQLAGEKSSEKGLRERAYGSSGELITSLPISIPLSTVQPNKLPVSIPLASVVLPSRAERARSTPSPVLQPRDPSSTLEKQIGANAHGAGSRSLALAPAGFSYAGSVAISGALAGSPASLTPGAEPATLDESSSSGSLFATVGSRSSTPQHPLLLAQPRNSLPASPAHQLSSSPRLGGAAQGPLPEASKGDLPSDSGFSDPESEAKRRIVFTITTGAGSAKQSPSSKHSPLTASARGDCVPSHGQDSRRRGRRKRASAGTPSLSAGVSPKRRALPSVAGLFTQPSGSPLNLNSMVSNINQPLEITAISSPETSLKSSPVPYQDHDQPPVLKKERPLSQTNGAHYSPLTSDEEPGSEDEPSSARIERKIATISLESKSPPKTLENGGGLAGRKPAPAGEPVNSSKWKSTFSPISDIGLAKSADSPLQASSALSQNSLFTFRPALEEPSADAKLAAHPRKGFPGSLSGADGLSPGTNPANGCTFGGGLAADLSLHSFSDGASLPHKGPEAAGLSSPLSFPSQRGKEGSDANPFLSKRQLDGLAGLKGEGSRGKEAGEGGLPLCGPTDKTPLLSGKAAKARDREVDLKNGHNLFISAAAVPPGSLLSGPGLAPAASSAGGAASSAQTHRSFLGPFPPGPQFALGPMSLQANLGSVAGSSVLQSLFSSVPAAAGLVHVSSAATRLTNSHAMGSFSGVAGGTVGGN

The structures appear in SMILES notation.

INMT (indolethylamine N-methyltransferase), sequence (O95050 whole entry): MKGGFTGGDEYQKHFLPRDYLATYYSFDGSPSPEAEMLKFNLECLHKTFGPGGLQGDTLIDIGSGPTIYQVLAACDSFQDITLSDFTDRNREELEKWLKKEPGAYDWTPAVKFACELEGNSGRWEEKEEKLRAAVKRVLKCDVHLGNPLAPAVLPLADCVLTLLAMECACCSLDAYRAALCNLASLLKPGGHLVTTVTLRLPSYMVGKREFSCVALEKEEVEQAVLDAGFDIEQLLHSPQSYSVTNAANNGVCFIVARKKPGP

On to `NC(=O)c1cccc(C#C[C@@H](CC[C@H](N)C(=O)O)C[C@H]2O[C@@H](n3cnc4c(N)ncnc43)[C@H](O)[C@@H]2O)c1`, for which, in data set [1], the inhibition at 0.5 h, 10 µM was 53%. The inhibition at 0.5 h, 1 µM in data set [2] is 4%. Moreover, in data set [3], the IC50 is above 10 µM.

The term inhibition denotes the relative decrease from the control value, in per cent. In general, IC50 refers to the concentration at which inhibition is half-maximal.
